Format in all cases: functional, cell-based
The subject of one assay is HCT-116. Put plainly: Cytotoxicity against Homo sapiens (human) HCT116 cells by MTT assay. (In general: Tetrazolium assays rely on reduction of a dye to a coloured formazan, in cell work by metabolically active cells.)
The test system of another assay is SGC-7901. Briefly: Cytotoxicity against Homo sapiens (human) SGC7901 cells by MTT assay.
A further assay relates to DU-145. Briefly: Cytotoxicity against Homo sapiens (human) DU145 cells by MTT assay.
The subject of the next assay is K562. Put plainly: Cytotoxicity against Homo sapiens (human) K562 cells by MTT assay.
The test system of another assay is HeLa. Briefly: Cytotoxicity against Homo sapiens (human) HeLa cells by MTT assay.

As for `CCCN(CCC)CCOc1cc(O)c2c(=O)cc(-c3ccccc3)oc2c1`, the 50% inhibitory concentration (IC50) in the assay on HCT-116 was 38 µM; in the assay on SGC-7901, 23.6 µM; in the assay on DU-145, 8.4 µM; in the assay on K562, over 100 µM; in the assay on HeLa, 1.56 µM.
Take `O=c1cc(-c2ccccc2)oc2cc(OCCN3CCNCC3)cc(O)c12`: the IC50 in the assay on HCT-116 was 32.3 µM; with SGC-7901, over 100 µM; in the assay on DU-145, 32.5 µM; in the assay on K562, over 100 µM; in the assay with HeLa it was over 100 µM.
As to `CC(C)N(CCOc1cc(O)c2c(=O)cc(-c3ccccc3)oc2c1)C(C)C`, the IC50 came to 4.6 µM with HCT-116; 7.98 µM in the assay with SGC-7901; 18.1 µM with DU-145; 27.8 µM in the assay with K562; 24.2 µM in the assay with HeLa.
As to `CNCCOc1cc(O)c2c(=O)cc(-c3ccccc3)oc2c1`, the concentration for half-maximal inhibition (IC50) in the assay on HCT-116 worked out at 2.5 µM; in the assay on SGC-7901, 4.8 µM; in the assay with DU-145, 2.95 µM; in the assay with K562, 7.8 µM; in the assay with HeLa, 3.72 µM.
Turning to `CN(C)CCOc1cc(O)c2c(=O)cc(-c3ccccc3)oc2c1`, the concentration for half-maximal inhibition (IC50) with HCT-116 was found to be 6.2 µM; in the assay on SGC-7901, 11 µM; with DU-145, 17.7 µM; in the assay on K562, 17.9 µM; in the assay on HeLa, 17.7 µM.
Take `O=c1[nH]cc(F)c(=O)[nH]1` [FLUOROURACIL]: the figures for the IC50 with SGC-7901 and with DU-145 were 2.19 µM and 2.95 µM, respectively.
For `CN1CCN(CCOc2cc(O)c3c(=O)cc(-c4ccccc4)oc3c2)CC1`, the IC50 with HCT-116 was 18.7 µM; in the assay on SGC-7901 it was 55.7 µM; with DU-145 it was 28.7 µM; with K562, 23.9 µM; with HeLa, 47.4 µM.
Regarding `O=c1cc(-c2ccccc2)oc2cc(OCCN3CCCCC3)cc(O)c12`, the IC50 was over 100 µM with HCT-116; 3.1 µM in the assay with SGC-7901; 3.17 µM with DU-145; 16.9 µM in the assay with K562; 1.7 µM in the assay on HeLa.
Taken in the same sequence, the figures for `O=c1cc(-c2ccccc2)oc2cc(OCCNCCO)cc(O)c12` were 2.3 µM, 5.05 µM, 5.5 µM, 8.31 µM and 4.46 µM.
With `O=c1cc(-c2ccccc2)oc2cc(OCCN(CCO)CCO)cc(O)c12`, the half-maximal inhibitory concentration (IC50) with HCT-116 is 22.2 µM; in the assay on SGC-7901, 59.2 µM; in the assay on DU-145, over 100 µM; with K562 it was 105 µM; in the assay on HeLa, 86.5 µM.
On the same counts, the results for `O=c1cc(-c2ccccc2)oc2cc(OCCN3CCOCC3)cc(O)c12` are over 100 µM, 43 µM, over 100 µM, over 100 µM and over 100 µM.
Taken in the same sequence, the figures for `O=c1cc(-c2ccccc2)oc2cc(O)cc(O)c12` [CHRYSIN] were over 100 µM, over 100 µM, 9.81 µM, over 100 µM and 43 µM.
Turning to `O=c1cc(-c2ccccc2)oc2cc(OCCNc3ccccc3)cc(O)c12`, the concentration for half-maximal inhibition (IC50) in the assay with HCT-116 was 35.5 µM; with SGC-7901, 69.8 µM; in the assay with DU-145, 68.2 µM; in the assay with K562, 31.2 µM; in the assay on HeLa it was over 100 µM.
Consider `CCN(CC)CCOc1cc(O)c2c(=O)cc(-c3ccccc3)oc2c1`, for which the half-maximal inhibitory concentration (IC50) in the assay with HCT-116 is 9.8 µM; in the assay on SGC-7901, 13.9 µM; with DU-145, 3.17 µM; in the assay on K562, 12.9 µM; with HeLa, 18.8 µM.
On the same counts, the results for `Cc1nccn1CCOc1cc(O)c2c(=O)cc(-c3ccccc3)oc2c1` are 3.2 µM, 7.83 µM, 8.2 µM, 10.8 µM and 9.7 µM.
Taken in the same sequence, the figures for `O=c1cc(-c2ccccc2)oc2cc(OCCNC3CCCCC3)cc(O)c12` were 2.95 µM, 6.18 µM, 4.98 µM, 1.76 µM and 6.97 µM.
Taken in the same sequence, the figures for `CC(C)(C)NCCOc1cc(O)c2c(=O)cc(-c3ccccc3)oc2c1` were 1.87 µM, 3.15 µM, 2.75 µM, over 100 µM and 4.92 µM.
On to `O=c1cc(-c2ccccc2)oc2cc(OCCn3ccnc3)cc(O)c12`, for which the 50% inhibitory concentration (IC50) in the assay on HCT-116 came to 4.2 µM; in the assay with SGC-7901, 5.55 µM; in the assay with DU-145, 7.3 µM; in the assay with K562 it was 27.2 µM; with HeLa it was 10.8 µM.
On the same counts, the results for `CC(C)NCCOc1cc(O)c2c(=O)cc(-c3ccccc3)oc2c1` are 8.1 µM, over 100 µM, over 100 µM, over 100 µM and over 100 µM.
On the same counts, the results for `CCCCN(CCCC)CCOc1cc(O)c2c(=O)cc(-c3ccccc3)oc2c1` are 9.7 µM, 53.3 µM, 44.2 µM, 43.4 µM and 13.3 µM.
For `CCCCNCCOc1cc(O)c2c(=O)cc(-c3ccccc3)oc2c1`, the 50% inhibitory concentration (IC50) came out at 2.7 µM in the assay with HCT-116; 1.88 µM with SGC-7901; 1.85 µM with DU-145; 14.9 µM in the assay on K562; 40.9 µM in the assay with HeLa.
On the same counts, the results for `O=c1cc(-c2ccccc2)oc2cc(OCCN3CCN(c4ccccc4)CC3)cc(O)c12` are over 100 µM, over 100 µM, over 100 µM, over 100 µM and over 100 µM.
On the same counts, the results for `CCCNCCOc1cc(O)c2c(=O)cc(-c3ccccc3)oc2c1` are 1.5 µM, 11.1 µM, 1.4 µM, 12.9 µM and 56.6 µM.

What is called IC50 is the concentration that gives 50% inhibition. Lower therefore signals greater potency.

The values are drawn from ChEMBL document CHEMBL3045913, “Synthesis and cytotoxicity of novel chrysin derivatives” (Med Chem Res, 2011).
